# Results reported in ChEMBL document CHEMBL1201862, “PubChem BioAssay data set” (2004).
#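 Interpolation was linear, between the two tested concentrations surrounding the appropriate level; five concentrations were tested over 48 hours in 96-well plates. Abbreviation: GI50, concentration required for 50% inhibition of growth.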 The source made the active and inactive calls. No stated cut-off is given here; in the data, active = GI50 up to about 1.1 µM and inactive = higher.
# How the values were obtained:
# Test in all cases: NCI-60 cell line screen, 48 h
# NCI-H226 = system: NCI-H226
# K562 = system: K562
# COLO 205 = system: COLO 205
# HCC 2998 = system: HCC 2998
# OVCAR-5 = system: OVCAR-5
# IGROV-1 = system: IGROV-1
# SN12C = system: SN12C
# HCT-116 = system: HCT-116
# KM12 = system: KM12
# Malme-3M = system: Malme-3M
# SNB-75 = system: SNB-75
# UACC-257 = system: UACC-257
# 786-0 = system: 786-0
# SF-539 = system: SF-539
# HT-29 = system: HT-29
# TK-10 = system: TK-10
# U-251 = system: U-251
Compound,GI50 (NCI-H226),GI50 (K562),GI50 (COLO 205),GI50 (HCC 2998),GI50 (OVCAR-5),GI50 (IGROV-1),GI50 (SN12C),GI50 (HCT-116),GI50 (KM12),GI50 (Malme-3M),GI50 (SNB-75),GI50 (UACC-257),GI50 (786-0),GI50 (SF-539),GI50 (HT-29),GI50 (TK-10),GI50 (U-251)
COc1ccc2c(c1OC)C1=C(C2=O)c2cc3c(cc2CCN1)OCO3,2.9 µM (inactive),25.1 µM (inactive),4.08 µM (inactive),32.1 µM (inactive),23.7 µM (inactive),68.1 µM (inactive),6.76 µM (inactive),32.8 µM (inactive),20.4 µM (inactive),69.3 µM (inactive),2.74 µM (inactive),34.5 µM (inactive),31.9 µM (inactive),28.2 µM (inactive),18.9 µM (inactive),54.1 µM (inactive),
O=C(Cc1ccccc1)NN1C(=O)C(Cl)C1c1cccc([N+](=O)[O-])c1 (configuration not stated),> 42.9 µM (inactive),21.3 µM (inactive),> 100 µM (inactive),> 100 µM (inactive),> 79.1 µM (inactive),4.18 µM (inactive),38.8 µM (inactive),23.4 µM (inactive),> 90.4 µM (inactive),> 78.5 µM (inactive),0.729 µM (active),36.6 µM (inactive),12.3 µM (inactive),80 µM (inactive),3.68 µM (inactive),> 100 µM (inactive),63.2 µM (inactive)
N=C(N)NCCCC(Nc1c2ccccc2nc2ccccc12)C(=O)O (configuration not stated),> 100 µM (inactive),84.9 µM (inactive),> 100 µM (inactive),> 100 µM (inactive),> 100 µM (inactive),,> 100 µM (inactive),> 100 µM (inactive),> 100 µM (inactive),> 100 µM (inactive),> 100 µM (inactive),> 100 µM (inactive),> 100 µM (inactive),> 100 µM (inactive),> 100 µM (inactive),53.7 µM (inactive),> 100 µM (inactive)
COC12OCCN(C)C1=CC(=O)C1(C)N=NCC12 (configuration not stated),> 100 µM (inactive),> 100 µM (inactive),> 100 µM (inactive),> 100 µM (inactive),,> 100 µM (inactive),> 100 µM (inactive),> 100 µM (inactive),> 100 µM (inactive),> 100 µM (inactive),> 100 µM (inactive),> 100 µM (inactive),> 100 µM (inactive),> 100 µM (inactive),> 100 µM (inactive),> 100 µM (inactive),> 100 µM (inactive)
CC(C)CC(=O)NS(=O)(=O)c1ccccc1,> 100 µM (inactive),> 100 µM (inactive),> 100 µM (inactive),> 100 µM (inactive),> 100 µM (inactive),> 100 µM (inactive),> 100 µM (inactive),> 100 µM (inactive),> 100 µM (inactive),> 100 µM (inactive),> 100 µM (inactive),> 100 µM (inactive),> 100 µM (inactive),> 100 µM (inactive),> 100 µM (inactive),> 100 µM (inactive),> 100 µM (inactive)
CCOC(=O)C(C)(c1c(C)[nH]c2ccccc12)c1c(C)[nH]c2ccccc12,13.5 µM (inactive),8.36 µM (inactive),,23.3 µM (inactive),19.6 µM (inactive),20.6 µM (inactive),,12.5 µM (inactive),14.2 µM (inactive),17.3 µM (inactive),17.6 µM (inactive),14.8 µM (inactive),19.1 µM (inactive),18.7 µM (inactive),16.7 µM (inactive),18.7 µM (inactive),16.9 µM (inactive)
CC(O[Si](C)(C)C)C1C=CC(C)n2c(=O)n(-c3ccccc3)c(=O)n21 (configuration not stated),,> 100 µM (inactive),> 100 µM (inactive),> 100 µM (inactive),> 100 µM (inactive),> 100 µM (inactive),,> 100 µM (inactive),> 100 µM (inactive),> 100 µM (inactive),,,> 100 µM (inactive),> 100 µM (inactive),> 100 µM (inactive),> 100 µM (inactive),> 100 µM (inactive)
COC1C=CC23c4cc5c(cc4C(O)OC2CN(C)C3C1)OCO5 (configuration not stated),1.64 µM (inactive),1.77 µM (inactive),1.08 µM (active),2.29 µM (inactive),3.34 µM (inactive),4.72 µM (inactive),2.35 µM (inactive),1.07 µM (active),2.13 µM (inactive),1.9 µM (inactive),,1.77 µM (inactive),1.64 µM (inactive),1.08 µM (active),,,
Cc1cccc2c1NC(c1c(C)[nH]c3ccccc13)C2 (configuration not stated),80.5 µM (inactive),> 100 µM (inactive),56 µM (inactive),> 100 µM (inactive),> 100 µM (inactive),33.4 µM (inactive),> 100 µM (inactive),> 100 µM (inactive),62.4 µM (inactive),> 100 µM (inactive),> 100 µM (inactive),> 100 µM (inactive),> 100 µM (inactive),> 100 µM (inactive),> 100 µM (inactive),> 100 µM (inactive),> 100 µM (inactive)
COc1ccc(C2=NN(C(=O)COc3ccc(Cl)cc3)C(O)(c3ccc(Cl)cc3)C2)cc1 (configuration not stated),> 100 µM (inactive),> 100 µM (inactive),> 100 µM (inactive),> 100 µM (inactive),> 100 µM (inactive),> 100 µM (inactive),> 100 µM (inactive),> 100 µM (inactive),> 100 µM (inactive),> 100 µM (inactive),> 100 µM (inactive),> 100 µM (inactive),> 100 µM (inactive),> 100 µM (inactive),> 100 µM (inactive),> 100 µM (inactive),> 100 µM (inactive)
CCCCc1c2c(nc3c1CCc1cc4cc5c(nc4nc1-3)-c1nc3c(c(CCCC)c1CC5)CCCC3)CCCC2,19.4 µM (inactive),39.4 µM (inactive),35.4 µM (inactive),62.2 µM (inactive),,38.5 µM (inactive),56.4 µM (inactive),34.5 µM (inactive),48.1 µM (inactive),38.6 µM (inactive),49.9 µM (inactive),59.8 µM (inactive),23.6 µM (inactive),16.4 µM (inactive),7.28 µM (inactive),26.9 µM (inactive),31.8 µM (inactive)
CCCC12Cc3c(OC)ccc(OC)c3CC(Cc3c(OC)ccc(OC)c31)C2=O (configuration not stated),24.8 µM (inactive),> 100 µM (inactive),,> 100 µM (inactive),> 100 µM (inactive),,> 100 µM (inactive),10.8 µM (inactive),> 100 µM (inactive),69.3 µM (inactive),> 100 µM (inactive),> 100 µM (inactive),> 100 µM (inactive),> 100 µM (inactive),> 100 µM (inactive),> 100 µM (inactive),> 100 µM (inactive)
COc1ccc(/C=N/Nc2nc(-c3cc4oc(=O)n(C)c4cc3Cl)cs2)cc1OC,,4.89 µM (inactive),81.8 µM (inactive),35.6 µM (inactive),> 100 µM (inactive),14 µM (inactive),17.9 µM (inactive),9.04 µM (inactive),18.8 µM (inactive),10.5 µM (inactive),28.7 µM (inactive),4.27 µM (inactive),33.4 µM (inactive),48.3 µM (inactive),9.33 µM (inactive),36.7 µM (inactive),15.7 µM (inactive)
CC(C)(C)C1=CC(=N/N=c2\scc(-c3ccccc3)n2-c2ccccc2)C=C(C(C)(C)C)C1=O,> 100 µM (inactive),> 100 µM (inactive),> 100 µM (inactive),> 100 µM (inactive),> 100 µM (inactive),> 100 µM (inactive),> 100 µM (inactive),> 100 µM (inactive),> 100 µM (inactive),> 100 µM (inactive),> 100 µM (inactive),> 100 µM (inactive),> 100 µM (inactive),> 100 µM (inactive),> 100 µM (inactive),> 100 µM (inactive),> 100 µM (inactive)
Cc1ccc(NC(=O)C2C(=O)N(c3ccc(C)c(C)c3)C(=O)/C2=N/O)cc1C (configuration not stated),> 100 µM (inactive),> 100 µM (inactive),> 100 µM (inactive),> 100 µM (inactive),> 100 µM (inactive),> 100 µM (inactive),> 100 µM (inactive),> 100 µM (inactive),> 100 µM (inactive),> 100 µM (inactive),> 100 µM (inactive),> 100 µM (inactive),68.1 µM (inactive),> 100 µM (inactive),> 100 µM (inactive),> 100 µM (inactive),> 100 µM (inactive)
O=C(NNc1ccccc1)/C(=C/c1ccc2c(c1)OCO2)NC(=O)c1ccccc1,96.2 µM (inactive),> 100 µM (inactive),40.1 µM (inactive),> 100 µM (inactive),> 100 µM (inactive),> 100 µM (inactive),> 100 µM (inactive),> 100 µM (inactive),> 100 µM (inactive),> 100 µM (inactive),> 100 µM (inactive),> 100 µM (inactive),> 100 µM (inactive),> 100 µM (inactive),> 100 µM (inactive),> 100 µM (inactive),98.4 µM (inactive)
CC(C)(C)C(=O)CC(=O)C(C)(C)C.CC(C)(C)C(=O)CC(=O)C(C)(C)C.[SiH4],0.0428 µM (active),1.57 µM (inactive),1.46 µM (inactive),0.393 µM (active),2.21 µM (inactive),1.47 µM (inactive),1.18 µM (inactive),1.26 µM (inactive),0.767 µM (active),6.12 µM (inactive),0.719 µM (active),2.44 µM (inactive),2.69 µM (inactive),2.56 µM (inactive),0.475 µM (active),3.4 µM (inactive),0.596 µM (active)
